# Data taken from ChEMBL document CHEMBL1201862, “PubChem BioAssay data set” (2004).
# The source made the active and inactive calls.
# Key:
# [1] = Luminescence Cell-Based Dose Confirmation HTS to Identify Inhibitors of Polyadenylation.; type: functional
# [2] = A cytotoxicity screen of small molecule inhibitors of the PhoP region in Salmonella typhi identified in the primary screen. [Related pubchem assays: 1850, 1864, 1985 ]; type: functional
# [3] = biological target: T1, Mannose-6-phosphate isomerase (Homo sapiens, UniProt P34949); experiment: MPI enzyme activity inhibition – biochemical, fluorescence intensity, coupled assay, primary screen (AID 1209)
# T1 sequence (P34949 whole entry): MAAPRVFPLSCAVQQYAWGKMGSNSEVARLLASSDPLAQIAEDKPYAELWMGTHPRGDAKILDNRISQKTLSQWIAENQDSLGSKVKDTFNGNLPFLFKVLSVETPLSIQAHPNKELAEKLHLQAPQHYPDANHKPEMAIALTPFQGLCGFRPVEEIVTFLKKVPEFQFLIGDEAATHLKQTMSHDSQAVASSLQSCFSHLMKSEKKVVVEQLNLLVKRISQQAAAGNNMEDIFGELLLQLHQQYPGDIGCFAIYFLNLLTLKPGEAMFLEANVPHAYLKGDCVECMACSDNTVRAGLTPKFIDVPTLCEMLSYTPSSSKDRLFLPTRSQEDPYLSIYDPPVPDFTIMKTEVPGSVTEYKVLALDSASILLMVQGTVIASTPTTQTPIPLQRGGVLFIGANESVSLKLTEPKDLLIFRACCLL
# [4] = viability of uninfected HEp-2 cells – cell-based, HTS, cytotoxicity control for RSV inhibitor project, dose response (AID 2410); type: functional; settings: human respiratory syncytial virus
# [5] = cells
# [6] = test system: Streptococcus sp. 'group A'; experiment: Streptococcus pyogenes SK(-)GAS viability under kanamycin – luminescence, BacTiterGlo, confirmation, counter-screen for streptokinase expression inhibitor project, dose response (AID 1900); type: functional, organism-based
# [7] = M. tuberculosis H37Rv growth inhibitors, H37Rv strain (AID 1626); type: functional
# [8] = biological target: T2, Streptokinase A (Streptococcus pyogenes serotype M1, UniProt P10520); experiment: viability-normalized secreted streptokinase activity reduction – plasminogen activation absorbance, OD405, dose response (AID 1914); type: functional, Streptococcus pyogenes M1 GAS;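 further: secreted streptokinase activity via plasminogen activation per viability signal from cell pellet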
# T2 sequence (P10520 whole entry): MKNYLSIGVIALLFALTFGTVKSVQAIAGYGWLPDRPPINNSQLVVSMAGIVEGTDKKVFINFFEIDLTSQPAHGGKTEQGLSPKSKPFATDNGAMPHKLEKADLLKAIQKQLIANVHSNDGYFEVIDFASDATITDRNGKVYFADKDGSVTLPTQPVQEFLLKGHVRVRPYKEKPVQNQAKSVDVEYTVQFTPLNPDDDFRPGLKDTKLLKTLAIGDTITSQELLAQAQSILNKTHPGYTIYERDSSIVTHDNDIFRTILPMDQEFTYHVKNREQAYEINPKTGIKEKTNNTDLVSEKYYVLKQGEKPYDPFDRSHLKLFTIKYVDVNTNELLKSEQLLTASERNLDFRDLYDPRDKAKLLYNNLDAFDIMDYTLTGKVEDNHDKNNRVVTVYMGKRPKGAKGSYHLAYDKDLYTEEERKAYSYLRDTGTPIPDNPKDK
# [9] = test system: Streptococcus; experiment: GAS UMAA2166 growth inhibition – luminescence, BacTiterGlo, counter-screen for streptokinase expression inhibitor project, dose response (AID 1915); type: functional, organism-based;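 further: potency for reduction of bacterial viability or growth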
# [10] = biological target: Genome polyprotein (dengue virus type 2, UniProt P29990); experiment: flavivirus cap methylation enzyme inhibition – biochemical, confirmation dose response, primary screen (AID 588689); type: functional
# [11] = Trypanosoma cruzi growth suppression in host cells – NIH3T3 host cells, beta-gal luminescence, confirmation (AID 2044); type: functional, cell-based;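 further: intracellular parasites grown in NIH/3T3 mouse fibroblasts as host cells; luminescent beta-galactosidase reporter signal from transgenic T. cruzi replicating inside host cells; inhibitors lower the luminescence signal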
# [12] = Luminescence Cell-Based Dose Response to Identify Activators of 5'UTR Stem-Loop Driven Prion Protein mRNA Translation in H4-C Neuroglioblastoma Cells. [Related pubchem assays: 1829 (Project Summary), 1814 (Primary HTS)]; type: functional
# [13] = test system: H4; experiment: Luminescence Cell-Based Dose Response HTS to Identify Activators of 5'UTR Stem-Loop Driven Prion Protein mRNA Translation in H4 Neuroglioblastoma Cells. [Related pubchem assays: 1829 (Project Summary), 1814 (Primary HTS)]; type: functional; settings: Homo sapiens
# [14] = Luminescence Cell-Based Dose Confirmation to Identify Activators of 5'UTR Stem-Loop Driven Alpha-Synuclein mRNA Translation in H4 Neuroglioblastoma Cells. [Related pubchem assays: 1829 (Project Summary), 1814 (Primary HTS)]; type: functional
# [15] = biological target: T3, Histone-lysine N-methyltransferase NSD2 (Homo sapiens, UniProt O96028); type: biochemical
# T3 sequence (O96028 whole entry): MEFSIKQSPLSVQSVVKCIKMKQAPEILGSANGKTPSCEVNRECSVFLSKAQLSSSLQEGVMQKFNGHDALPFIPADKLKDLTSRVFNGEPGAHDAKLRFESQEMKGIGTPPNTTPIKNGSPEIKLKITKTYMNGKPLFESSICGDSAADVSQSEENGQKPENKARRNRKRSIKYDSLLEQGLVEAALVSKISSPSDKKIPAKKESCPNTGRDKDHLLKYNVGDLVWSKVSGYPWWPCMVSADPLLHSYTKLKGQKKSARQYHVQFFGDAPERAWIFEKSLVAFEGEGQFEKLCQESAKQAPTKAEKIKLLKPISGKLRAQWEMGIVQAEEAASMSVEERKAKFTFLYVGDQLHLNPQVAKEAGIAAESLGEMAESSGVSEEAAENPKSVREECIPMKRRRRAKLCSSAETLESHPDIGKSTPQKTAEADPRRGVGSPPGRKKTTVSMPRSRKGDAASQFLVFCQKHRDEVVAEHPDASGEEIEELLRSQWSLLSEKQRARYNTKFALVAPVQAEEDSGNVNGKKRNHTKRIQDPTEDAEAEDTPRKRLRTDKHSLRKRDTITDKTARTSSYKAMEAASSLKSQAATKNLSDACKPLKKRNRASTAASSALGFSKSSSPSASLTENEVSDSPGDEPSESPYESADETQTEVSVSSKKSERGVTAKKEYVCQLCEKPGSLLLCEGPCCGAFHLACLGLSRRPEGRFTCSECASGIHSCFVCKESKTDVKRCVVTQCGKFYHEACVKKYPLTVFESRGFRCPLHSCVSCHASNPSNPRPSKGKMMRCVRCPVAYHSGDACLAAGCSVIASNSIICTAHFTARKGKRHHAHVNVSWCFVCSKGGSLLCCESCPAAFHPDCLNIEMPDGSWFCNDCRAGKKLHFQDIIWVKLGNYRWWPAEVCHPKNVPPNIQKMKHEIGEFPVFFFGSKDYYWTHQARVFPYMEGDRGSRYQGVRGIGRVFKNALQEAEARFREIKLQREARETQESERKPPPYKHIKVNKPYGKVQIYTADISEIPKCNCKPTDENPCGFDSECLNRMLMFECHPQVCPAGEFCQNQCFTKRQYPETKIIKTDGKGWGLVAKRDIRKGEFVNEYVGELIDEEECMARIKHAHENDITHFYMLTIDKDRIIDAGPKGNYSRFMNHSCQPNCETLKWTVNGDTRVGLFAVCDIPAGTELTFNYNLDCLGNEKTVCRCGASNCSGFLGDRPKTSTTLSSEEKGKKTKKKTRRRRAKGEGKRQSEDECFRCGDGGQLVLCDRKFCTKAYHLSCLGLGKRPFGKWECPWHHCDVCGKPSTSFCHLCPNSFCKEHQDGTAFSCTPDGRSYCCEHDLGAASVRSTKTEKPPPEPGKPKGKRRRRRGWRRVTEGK
# [16] = Luminescence Cell-Based Dose Response to Identify Activators of Luciferase Translation or Activity in H4-C Neuroglioblastoma Cells. [Related pubchem assays: 1829 (Project Summary), 1814 (Primary HTS)]; type: functional
# [17] = NIH3T3 cell viability loss – ATP luminescence, mouse fibroblasts, counter-screen, dose response (AID 2010); type: functional, cell-based;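 further: cells exposed to compound for about 90 hours before reading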
# [18] = Luminescence Cell-Based Dose Confirmation HTS to Identify Activators of 5'UTR Stem-Loop Driven Alpha-Synuclein mRNA Translation in H4 Neuroglioblastoma Cells. [Related pubchem assays: 1829 (Project Summary), 1814 (Primary HTS)]; type: functional
# [19] = Luminescence Cell-Based Dose Response HTS to Identify Activators of Luciferase Translation or Activity in H4 […] Cells. [Related pubchem assays: 1829 (Project Summary), 1814 (Primary HTS)]; type: functional
# [20] = biological target: T4, Carboxy-terminal domain RNA polymerase II polypeptide A small phosphatase 1 (Homo sapiens, UniProt Q9GZU7); experiment: CTDSP1 inhibitors, concentration-response, biochemical, absorbance readout, ultra-high-throughput screen actives (AID 540297); type: functional
# T4 sequence (Q9GZU7 whole entry): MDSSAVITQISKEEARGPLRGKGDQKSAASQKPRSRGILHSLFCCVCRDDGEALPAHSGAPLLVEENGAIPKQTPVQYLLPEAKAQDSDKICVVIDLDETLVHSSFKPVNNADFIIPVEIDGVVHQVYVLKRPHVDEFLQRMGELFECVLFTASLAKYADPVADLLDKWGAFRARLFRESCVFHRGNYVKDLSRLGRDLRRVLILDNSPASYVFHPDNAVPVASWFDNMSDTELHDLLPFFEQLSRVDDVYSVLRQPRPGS
# [21] = biological target: NS3 (Hepatitis C virus, UniProt A3EZJ3); experiment: PubChem AID 2173; design: species or system Hepacivirus hominis
# [22] = biological target: Protein-tyrosine kinase 2-beta (Homo sapiens, UniProt Q14289);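 further: potency of inhibitors of PYK2 kinase phosphorylation of poly-GT substrate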
# [23] = Luminescence Cell-Based Dose Retest to Confirm Inhibitors of Cancer Stem Cells. [Related pubchem assays (depositor defined):AID2717, AID2721]; type: functional; settings: Homo sapiens
# [24] = biological target: T5, Estrogen receptor (Homo sapiens, UniProt P03372);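 further: potency for inhibiting coactivator peptide recruitment to the receptor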
# T5 sequence (P03372 whole entry): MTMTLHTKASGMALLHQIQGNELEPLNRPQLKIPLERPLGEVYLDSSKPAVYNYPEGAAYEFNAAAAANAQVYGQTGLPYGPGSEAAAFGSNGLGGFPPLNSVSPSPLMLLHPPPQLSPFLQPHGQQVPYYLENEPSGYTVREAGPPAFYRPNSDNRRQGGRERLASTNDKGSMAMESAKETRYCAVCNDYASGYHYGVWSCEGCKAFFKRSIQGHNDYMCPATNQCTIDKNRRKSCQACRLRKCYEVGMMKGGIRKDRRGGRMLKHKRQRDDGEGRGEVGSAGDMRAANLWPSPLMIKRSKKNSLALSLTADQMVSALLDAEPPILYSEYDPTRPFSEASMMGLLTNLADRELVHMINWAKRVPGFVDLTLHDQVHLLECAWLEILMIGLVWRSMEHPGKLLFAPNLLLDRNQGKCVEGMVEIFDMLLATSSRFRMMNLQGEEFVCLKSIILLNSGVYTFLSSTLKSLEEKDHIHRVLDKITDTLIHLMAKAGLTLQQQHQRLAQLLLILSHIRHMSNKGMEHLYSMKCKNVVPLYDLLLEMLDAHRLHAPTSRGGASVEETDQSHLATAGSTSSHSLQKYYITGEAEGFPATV
# [25] = biological target: Neurotensin receptor type 1 (Homo sapiens, UniProt P30989); type: functional;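 further: Image-based confirmatory dose-response assay measuring agonist activity at NTR1; NTR1-expressing U2OS osteosarcoma cells imaged for beta-arrestin GFP spot formation; agonist potency where compounds increase beta-arrestin recruitment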
# [26] = viability of HCT116 lacking mutant beta-catenin – cell-based, human colon tumor, dose response (AID 1045); type: functional;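 further: HCT116 colon tumor cells with beta catenin knocked out; cells exposed to compound for 60 hours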
# [27] = viability of PTEN-deleted HCT116 cells – cell-based, HCT116 PTEN knockout, dose response (AID 1047); type: functional;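 further: HCT116 colon tumor cells with PTEN knocked out; cells exposed to compound for 60 hours before readout; potency for loss of cell viability measured by luminescence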
# Genome polyprotein, sequence (P29990 2492-3391 limits assumed): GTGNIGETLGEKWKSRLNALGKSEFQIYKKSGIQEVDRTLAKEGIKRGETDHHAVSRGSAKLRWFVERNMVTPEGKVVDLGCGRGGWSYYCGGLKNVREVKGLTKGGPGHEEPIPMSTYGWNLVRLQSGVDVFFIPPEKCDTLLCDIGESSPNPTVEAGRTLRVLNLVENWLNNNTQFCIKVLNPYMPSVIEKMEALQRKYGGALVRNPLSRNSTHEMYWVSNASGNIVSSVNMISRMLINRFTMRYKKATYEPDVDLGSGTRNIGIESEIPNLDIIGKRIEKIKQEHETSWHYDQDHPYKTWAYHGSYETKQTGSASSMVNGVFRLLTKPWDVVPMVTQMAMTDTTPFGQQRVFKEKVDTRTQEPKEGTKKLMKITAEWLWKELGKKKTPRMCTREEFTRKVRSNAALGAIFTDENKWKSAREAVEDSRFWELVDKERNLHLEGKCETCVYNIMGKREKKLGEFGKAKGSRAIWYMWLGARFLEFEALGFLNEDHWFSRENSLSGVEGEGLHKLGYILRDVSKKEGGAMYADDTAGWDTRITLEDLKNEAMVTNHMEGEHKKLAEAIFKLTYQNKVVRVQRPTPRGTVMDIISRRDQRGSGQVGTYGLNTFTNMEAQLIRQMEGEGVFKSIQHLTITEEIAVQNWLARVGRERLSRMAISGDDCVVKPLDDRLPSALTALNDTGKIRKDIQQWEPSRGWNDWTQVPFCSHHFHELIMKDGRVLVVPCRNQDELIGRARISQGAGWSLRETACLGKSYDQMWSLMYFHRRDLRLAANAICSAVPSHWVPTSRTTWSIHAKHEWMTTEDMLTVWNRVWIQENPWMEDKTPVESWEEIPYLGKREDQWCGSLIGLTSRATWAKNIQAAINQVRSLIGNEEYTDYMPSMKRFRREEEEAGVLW
# Neurotensin receptor type 1, sequence (P30989 whole entry): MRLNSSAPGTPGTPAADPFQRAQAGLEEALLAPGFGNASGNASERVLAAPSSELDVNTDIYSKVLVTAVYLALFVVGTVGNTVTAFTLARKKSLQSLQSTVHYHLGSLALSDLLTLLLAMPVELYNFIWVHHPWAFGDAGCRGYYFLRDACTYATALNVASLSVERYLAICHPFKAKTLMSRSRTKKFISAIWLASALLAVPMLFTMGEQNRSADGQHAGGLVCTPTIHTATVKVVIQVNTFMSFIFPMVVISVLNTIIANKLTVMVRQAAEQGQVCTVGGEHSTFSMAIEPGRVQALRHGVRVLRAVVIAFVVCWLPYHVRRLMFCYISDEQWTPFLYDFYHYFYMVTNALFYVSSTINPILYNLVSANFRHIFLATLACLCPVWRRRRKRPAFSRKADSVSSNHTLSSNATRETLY
# NS3, sequence (A3EZJ3 whole entry): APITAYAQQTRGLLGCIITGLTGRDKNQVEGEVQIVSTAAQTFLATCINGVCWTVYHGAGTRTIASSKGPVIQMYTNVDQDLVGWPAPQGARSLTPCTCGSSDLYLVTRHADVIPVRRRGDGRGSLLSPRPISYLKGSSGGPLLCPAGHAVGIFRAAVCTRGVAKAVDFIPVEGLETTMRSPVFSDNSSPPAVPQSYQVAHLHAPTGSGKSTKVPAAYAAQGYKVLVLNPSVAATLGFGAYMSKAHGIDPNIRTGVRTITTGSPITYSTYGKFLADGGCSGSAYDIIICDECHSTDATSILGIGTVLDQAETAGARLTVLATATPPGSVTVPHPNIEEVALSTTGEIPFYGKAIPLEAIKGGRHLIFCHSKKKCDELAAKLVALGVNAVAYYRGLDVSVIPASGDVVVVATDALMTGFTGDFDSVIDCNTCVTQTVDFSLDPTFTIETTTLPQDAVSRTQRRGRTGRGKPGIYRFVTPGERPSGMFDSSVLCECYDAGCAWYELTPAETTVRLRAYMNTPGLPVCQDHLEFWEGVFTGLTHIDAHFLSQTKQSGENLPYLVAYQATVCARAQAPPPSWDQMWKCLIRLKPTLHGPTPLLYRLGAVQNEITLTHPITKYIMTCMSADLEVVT
# Protein-tyrosine kinase 2-beta, sequence (Q14289 whole entry): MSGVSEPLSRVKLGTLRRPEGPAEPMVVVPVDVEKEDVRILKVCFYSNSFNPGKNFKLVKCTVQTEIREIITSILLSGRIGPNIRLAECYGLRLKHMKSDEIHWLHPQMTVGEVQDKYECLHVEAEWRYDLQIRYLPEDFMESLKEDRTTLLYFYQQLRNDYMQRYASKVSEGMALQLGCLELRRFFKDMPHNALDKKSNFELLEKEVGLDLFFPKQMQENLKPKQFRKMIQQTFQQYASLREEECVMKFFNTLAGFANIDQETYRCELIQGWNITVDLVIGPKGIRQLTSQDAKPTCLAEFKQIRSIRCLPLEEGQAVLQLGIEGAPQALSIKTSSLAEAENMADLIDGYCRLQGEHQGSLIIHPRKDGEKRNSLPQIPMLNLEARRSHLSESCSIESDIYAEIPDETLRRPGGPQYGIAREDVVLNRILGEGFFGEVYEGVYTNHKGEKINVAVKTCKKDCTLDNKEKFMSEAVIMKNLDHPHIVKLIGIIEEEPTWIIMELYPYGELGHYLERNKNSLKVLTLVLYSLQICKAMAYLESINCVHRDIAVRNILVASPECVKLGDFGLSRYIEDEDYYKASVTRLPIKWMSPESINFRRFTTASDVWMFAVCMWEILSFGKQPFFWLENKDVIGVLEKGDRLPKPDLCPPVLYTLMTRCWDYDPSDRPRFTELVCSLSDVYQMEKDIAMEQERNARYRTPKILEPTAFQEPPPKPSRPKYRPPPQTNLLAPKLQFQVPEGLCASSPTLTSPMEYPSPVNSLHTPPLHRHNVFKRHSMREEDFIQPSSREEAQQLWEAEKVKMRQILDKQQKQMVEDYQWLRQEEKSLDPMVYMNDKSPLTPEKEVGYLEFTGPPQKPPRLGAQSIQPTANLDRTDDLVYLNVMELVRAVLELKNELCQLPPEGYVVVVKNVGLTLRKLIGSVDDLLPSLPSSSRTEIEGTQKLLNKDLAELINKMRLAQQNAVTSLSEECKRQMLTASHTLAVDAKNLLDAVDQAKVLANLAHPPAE
smiles,measurement,setting,value
COc1cc(C(=O)Nc2c(C)cc(C)cc2C)c(Br)c(OC)c1OC,EC50,[1],> 120 µM (not active)
CCN=C(S)Nc1cc(-c2ccc(Cl)cc2)[nH]n1,EC50,[2],> 50 µM (active)
same,IC50,[3],> 50 µM (not active)
O=[N+]([O-])c1ccccc1S(=O)(=O)Nc1cccc(-c2ccc(N3CCOCC3)nn2)c1,CC50,[4],> 50 µM (active)
same,IC50,[5],16.8 µM (active)
COc1ccc(OCCn2c(NC(=O)c3ccco3)nc3ccccc32)cc1,EC50,[6],5.47 µM (active)
same,IC50,[7],> 100 µM (active)
same,EC50,[8],> 150 µM (not active)
same,EC50,[9],> 150 µM (not active)
Cc1nc2ccc(NC(=O)C(F)(F)F)cc2o1,IC50,[7],> 100 µM (active)
O=C(O)c1cccc(NC2=C(Cl)C(=O)c3ccccc3C2=O)c1,IC50,[10],15.6 µM (active)
same,EC50,[11],> 30 µM (not active)
same,EC50,[12],> 12 µM (not active)
same,EC50,[13],6.76 µM (active)
same,EC50,[14],> 12 µM (not active)
same,AC50,[15],5.2 µM (active)
same,EC50,[16],0.149 µM (active)
same,EC50,[17],5.21 µM (active)
same,EC50,[18],1.44 µM (active)
same,EC50,[19],< 0.1 µM (active)
CC[n+]1c(C)n(-c2ccccc2)c2ccc(NC(C)=O)cc21,IC50,[20],5.18 µM (active)
same,IC50,[3],> 50 µM (not active)
Cc1ccc(CCCOC(=O)C[N+]2(C)CCCC2)cc1,IC50,[20],11 µM (active)
same,IC50,[3],> 50 µM (not active)
CC(C)C(C)(C#N)NC(=O)CSc1nc2scc(-c3ccco3)c2c(=O)n1-c1ccccc1 (configuration not stated),IC50,[21],11.3 µM (not active)
O=C1Nc2ccc(NS(=O)(=O)c3cccs3)c3cccc1c23,IC50,[22],5.32 µM (active)
O=C1c2ccccc2C(=O)N1CCCCN(C(=O)c1cc2ccccc2oc1=O)c1ccc(Cl)cc1,IC50,[5],21.9 µM (active)
COC(=O)c1sc2nc(N3CCCCC3)c3c(c2c1N)CCCC3,CC50,[4],> 50 µM (active)
same,IC50,[5],> 50 µM (active)
same,AC50,[23],2.95 µM (active)
COc1cc(C(=O)OCC(=O)Nc2c(F)c(F)c(F)c(F)c2F)cc(OC)c1OC,IC50,[24],> 50 µM (not active)
O=C(COC(=O)Cc1ccccc1F)Nc1ccc2c(c1)OCO2,IC50,[7],> 100 µM (active)
CCCCCn1c(N2CCC(Cc3ccccc3)CC2)nc2c1c(=O)[nH]c(=O)n2C,EC50,[25],9.08 µM (active)
same,EC50,[11],0.971 µM (active)
same,EC50,[26],12.7 µM (active)
same,EC50,[27],11.9 µM (active)
same,EC50,[17],> 60 µM (not active)
